# Test results from article PMC7822874, “Chemoprotective antimalarials identified through quantitative high-throughput screening of Plasmodium blood and liver stage parasites” (Scientific Reports, 2021).
# Several values for one entry are separate records, joined by “and”; a condition that tells them apart may be missing. Equal entries are not always repeated. Where two headings read alike, the source gives them in different places.
# Columns and labels:
# [1] = test system: P. berghei-ANKA-GFP-LucCON liver stage parasites in HepG2-A16-CD81EGFP cells; experiment: P. berghei liver stage Pb-Luc assay, Method 1 (UCSD, 1536-well); type: cell-based, Plasmodium berghei; conditions: for activity at 1 µM / activity at 3 µM: 48 h
# [2] = test system: Plasmodium falciparum Dd2 asexual blood stage parasites; experiment: microbe, parasite or virus in culture; design: species or system Plasmodium falciparum Dd2 in human erythrocytes; single determination (one 11-point concentration-response curve); conditions: Plasmodium falciparum, DD2, Erythrocyte, 72 h; read-out: AC50
# in vitro [3] = conditions: human
# HepG2 = conditions: human, hepg2 cells, 48 h
# in vitro [4] = conditions: human, hepg2 cells
# [5] = test system: luciferase-expressing P. berghei liver stage parasites in HepG2 cells; experiment: Inhibition of liver-stage development assay (ILSDA), Method 2 (WRAIR, 96-well); type: cell-based, Plasmodium berghei
# [6] = test system: T1, Plasmodium falciparum Dd2-attB (parental line), asexual blood stages; experiment: microbe, parasite or virus in culture; design: replicate k of 3 (each line is one of three independent assays; the three lines of one compound and parasite line follow each other); conditions: n = 1
# T1 construct: Dd2-attB, the isogenic parental line
# In short: (§1)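 Both lines were tested side by side with selected compounds, repeated in three independent assays. Differences between parental and ScDHODH-expressing parasites were then assessed with a two-sided Student's t-test.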
# [7] = test system: T2, Plasmodium falciparum Dd2-attB-ScDHODH (transgenic line expressing yeast DHODH), asexual blood stages; experiment: organism not typed; design: replicate k of 3 (each line is one of three independent assays; the three lines of one compound and parasite line follow each other); conditions: 72 h, n = 1
# T2 construct: Dd2-attB-ScDHODH, the transgenic line that expresses yeast DHODH
# In short: as §1
# [8] = Plasmodium berghei, nominal 1 uM (10 mM stock), […] for 15 mM, 1.2 uM for 12 mM, 2 uM for 20 mM stock, average of 2 wells, 1536-well plate, repeat 1, read-out: Pb-Luc signal, 1 uM, repeat 1
# [9] = Plasmodium berghei, nominal 1 uM (10 mM stock), […] for 15 mM, 1.2 uM for 12 mM, 2 uM for 20 mM stock, average of 2 wells, 1536-well plate, repeat 2, read-out: Pb-Luc signal, 1 uM, repeat 2
# [10] = Plasmodium berghei, nominal 1 uM (10 mM stock), […] for 15 mM, 1.2 uM for 12 mM, 2 uM for 20 mM stock, average of 2 wells, 1536-well plate, repeat 3, read-out: Pb-Luc signal, 1 uM, repeat 3
# [11] = Plasmodium berghei, nominal 3 uM (10 mM stock), 4.5 uM for 15 mM, 3.6 uM for 12 mM, 6 uM for 20 mM stock, average of 2 wells, 1536-well plate, repeat 1, read-out: Pb-Luc signal, 3 uM, repeat 1
# [12] = Plasmodium berghei, nominal 3 uM (10 mM stock), 4.5 uM for 15 mM, 3.6 uM for 12 mM, 6 uM for 20 mM stock, average of 2 wells, 1536-well plate, repeat 2, read-out: Pb-Luc signal, 3 uM, repeat 2
# [13] = Plasmodium berghei, nominal 3 uM (10 mM stock), 4.5 uM for 15 mM, 3.6 uM for 12 mM, 6 uM for 20 mM stock, average of 2 wells, 1536-well plate, repeat 3, read-out: Pb-Luc signal, 3 uM, repeat 3
# [14] = nominal 1 uM (10 mM stock), […] for 15 mM, 1.2 uM for 12 mM, 2 uM for 20 mM stock, average of 2 wells, repeat 2
# [15] = nominal 3 uM (10 mM stock), 4.5 uM for 15 mM, 3.6 uM for 12 mM, 6 uM for 20 mM stock, average of 2 wells, repeat 2
# [16] = HepG2-A16-CD81EGFP cells, uninfected
Compound,"activity at 1 µM [1, 8] [%]","activity at 1 µM [1, 9] [%]","activity at 1 µM [1, 10] [%]","activity at 3 µM [1, 11] [%]","activity at 3 µM [1, 12] [%]","activity at 3 µM [1, 13] [%]",AC50 [2] [µM],"HepG2 viability signal, 1 uM, repeat 2 (HepG2-A16-CD81EGFP cells; [14]) [%]","HepG2 viability signal, 3 uM, repeat 2 (HepG2-A16-CD81EGFP cells; [15]) [%]","viability at 48 h, 1 µM (in vitro [3]; [16]) [%]","viability at 48 h, 3 µM (in vitro [3]; [16]) [%]",Log AC50 (M) (HepG2),CC50 at 48 h (in vitro [4]) [µM],also measured
N=c1n(CCN2CCCCC2)c2ccccc2n1CC(O)COc1ccc(Cl)cc1Cl (stereo not drawn) [NCGC00100256-01],94.7,93.8,119,65.4,71,72.8,4.22,103.32,101.25,103,102,-4.5143,30.6,
COc1ccc(CN2CCCn3nc(C)c(-c4ccccc4Oc4ccccc4)c32)cc1O [NCGC00420291-01],77.1,79.5,133,83.6,59.5,87.2,9.44,99.76,103.00,101,105,-4.3643,43.2,
O=C(Nc1ccccc1)OC[C@H]1C[C@@H]2CCN1C[C@@H]2c1cc(C2CCCC2)nc(-c2ccncc2)n1 [NCGC00421344-01],68.5,91.8,72.8,27.1,71.6,77.7,1.68,,,,,-4.4643,34.3,"HepG2 viability signal, 1 uM, repeat 2 (HepG2-A16-CD81EGFP cells; human, 48 h, 1 µM): 103.60%; HepG2 viability signal, 3 uM, repeat 2 (HepG2-A16-CD81EGFP cells; human, 48 h, 3 µM): 105.28%; viability at 48 h, 1 µM (in vitro [3]): 101%; viability at 48 h, 3 µM (in vitro [3]): 105%"
COc1ccc(CCN2CCC(Nc3nc4ccccc4n3Cc3ccc(F)cc3)CC2)cc1 [NCGC00016913-08],,,,,,,2.37,,,,,-4.4643,34.3,"AC50 [1]: 3.16 µM; Max Resp (signal direction of the dose response) ([1]; Method 1, Decrease = decreasing P. berghei viability with dose, Increase = increasing signal, Inactive = no dose response): Decrease; Log AC50 (M) ([1]; Method 1, log10 of molar AC50 from Hill fit): -5.500 M; AC50 ([1]; Plasmodium berghei, Method 1, log10 of molar AC50 from Hill fit, read-out: Log AC50 (converted)): 2.82 µM; Max Resp (signal direction of the dose response) [5]: Inactive"
CCCCCn1c(=N)n(CC(O)COc2cccc(C)c2)c2ccccc21 (stereo not drawn) [NCGC00101833-01],93.7,90.1,79.6,67.5,71,96.1,2.11,100.99,100.64,98.8,94.8,-4.3643,43.2,
Br.CCOC(=O)c1c(CSC(=N)N)n(-c2ccc(Br)cc2)c2cc(Br)c(OC(C)=O)cc12 [MLS000595146-01],,,,,,,,,,105,104,-4.3143,48.5,"HepG2 viability, % of control (HepG2-A16-CD81EGFP cells): 100% and 96%"
CC1(C)Cc2ccccc2C2=NNC(=O)C2=N1 [MLS000709658-01],,,,,,,3.35,,,,,-4.4643,34.3,"activity at 1 µM ([1]; Plasmodium berghei, P. berghei liver stage, 1 µM compound treatment (10 mM stocks), replicate 1, normalized, average of 2 wells on a 1536 well plate, read-out: PbLuc 1uM growth rep1): 117%; activity at 1 µM ([1]; Plasmodium berghei, P. berghei liver stage, 1 µM compound treatment (10 mM stocks), replicate 2, normalized, average of 2 wells on a 1536 well plate, read-out: PbLuc 1uM growth rep2): 83%; activity at 3 µM ([1]; Plasmodium berghei, P. berghei liver stage, 3 µM compound treatment (10 mM stocks), replicate 1, normalized, average of 2 wells on a 1536 well plate, read-out: PbLuc 3uM growth rep1): 68%; activity at 3 µM ([1]; Plasmodium berghei, P. berghei liver stage, 3 µM compound treatment (10 mM stocks), replicate 2, normalized, average of 2 wells on a 1536 well plate, read-out: PbLuc 3uM growth rep2): 64%; HepG2 1uM growth rep1 (HepG2-A16-CD81EGFP cells; HepG2, 1 µM compound treatment (10 mM stocks), replicate 1, normalized, average of 2 wells): 98%; HepG2 1uM growth rep2 (HepG2-A16-CD81EGFP cells; HepG2, 1 µM compound treatment (10 mM stocks), replicate 2, normalized, average of 2 wells): 96%; HepG2 3uM growth rep1 (HepG2-A16-CD81EGFP cells; HepG2, 3 µM compound treatment (10 mM stocks), replicate 1, normalized, average of 2 wells): 90%; HepG2 3uM growth rep2 (HepG2-A16-CD81EGFP cells; HepG2, 3 µM compound treatment (10 mM stocks), replicate 2, normalized, average of 2 wells): 99%"
CN1CCN(c2ccc3ncc(Nc4ccccc4-c4ccccc4)n3n2)CC1 [NCGC00412547-01],101,104,100,50.6,88.8,92.9,0.863,97.22,96.99,96,97.1,-4.3528,44.4,
Oc1cc(NCc2ccccc2)cc2cccnc12 [NCGC00183793-01],,,,,,,2.99,,,91,52,-4.3643,43.2,"Individual replicates / Log AC50 (M) ([6]; 72 h): -5.3986 Log AC50 (M) and -5.2986 Log AC50 (M); AC50 ([6]; Plasmodium falciparum, DD2, 72 h, read-out: Individual replicates / Log AC50 (M) (converted)): 3.56e-06 M; Individual replicates / Log AC50 (M) [7]: -5.2486 Log AC50 (M); AC50 ([7]; read-out: Individual replicates / Log AC50 (converted)): 4.48 µM"
CN(C)CCCNc1cc(N2CCN(C3CCCCC3)CC2)c2noc3c2c1C(=O)c1ccccc1-3 [NCGC00111069-01],66,110,109,57.2,71.6,75.6,1.33,102.79,99.71,96.3,93.8,-4.4143,38.5,
